Reference: the NIST ThermoML archive (doi:10.1016/j.fluid.2013.05.001)
Where “and” joins values, the source holds several entries; their conditions need not be identical. Equal values may be shown once. Numbers after ± are expanded uncertainties.

Tests used:
[1] = refractive index (Na D-line) (dimensionless); conditions: 298.15 K; 85.9 kPa; Liquid; Standard Abbe refractometry
[2] = 298.15 K, 85.9 kPa, Liquid; for viscosity: Capillary tube (Ostwald / Ubbelohde) method; for mass density: Vibrating tube method
[3] = mn = molality of the nth substance listed, in mol/kg; conditions: 85.9 kPa, Liquid, Vibrating tube method

## C1COCCO1 [1,4-dioxane]
[1]
  refractive index: 1.4188 ± 0.0004
[2]
  viscosity: 1.158 ± 0.009 mPa·s
  mass density: 1027.93 ± 1 kg/m3

## CC(=O)N(C)C [N,N-dimethylethanamide]
[1]
  refractive index: 1.436 ± 0.0004
[2]
  viscosity: 0.961 ± 0.009 mPa·s
  mass density: 936.57 ± 1 kg/m3

## C[S+](C)[O-] [dimethyl sulfoxide]
[1]
  refractive index: 1.4762 ± 0.0004
[2]
  viscosity: 1.867 ± 0.013 mPa·s
  mass density: 1095.29 ± 1 kg/m3

## CC(=O)Nc1ccc(OC(=O)c2ccccc2O)cc1 [salophen] + C1CCOC1
[3]; 288.15 K, m1 = 0.0103
  mass density: 893.79 ± 1 kg/m3 and 882.94 ± 1 kg/m3
[3]; 288.15 K, m1 = 0.0316
  mass density: 884.82 ± 1 kg/m3 and 895.65 ± 1 kg/m3
[3]; 288.15 K, m1 = 0.0496
  mass density: 886.39 ± 1 kg/m3 and 897.21 ± 1 kg/m3
[3]; 288.15 K, m1 = 0.0699
  mass density: 888.13 ± 1 kg/m3 and 898.95 ± 1 kg/m3
[3]; 288.15 K, m1 = 0.0908
  mass density: 889.9 ± 1 kg/m3 and 900.71 ± 1 kg/m3
[3]; 288.15 K, m1 = 0.1099
  mass density: 891.51 ± 1 kg/m3 and 902.31 ± 1 kg/m3
[3]; 288.15 K, m1 = 0.1293
  mass density: 893.11 ± 1 kg/m3 and 903.88 ± 1 kg/m3
[3]; 288.15 K, m1 = 0.1498
  mass density: 894.79 ± 1 kg/m3 and 905.55 ± 1 kg/m3
[3]; 288.15 K, m1 = 0.1704
  mass density: 896.46 ± 1 kg/m3 and 907.21 ± 1 kg/m3
[3]; 308.15 K, m1 = 0.0103
  mass density: 871.92 ± 1 kg/m3
[3]; 308.15 K, m1 = 0.0316
  mass density: 873.82 ± 1 kg/m3
[3]; 308.15 K, m1 = 0.0496
  mass density: 875.41 ± 1 kg/m3
[3]; 308.15 K, m1 = 0.0699
  mass density: 877.17 ± 1 kg/m3
[3]; 308.15 K, m1 = 0.0908
  mass density: 878.97 ± 1 kg/m3
[3]; 308.15 K, m1 = 0.1099
  mass density: 880.59 ± 1 kg/m3
[3]; 308.15 K, m1 = 0.1293
  mass density: 882.21 ± 1 kg/m3
[3]; 308.15 K, m1 = 0.1498
  mass density: 883.9 ± 1 kg/m3
[3]; 308.15 K, m1 = 0.1704
  mass density: 885.6 ± 1 kg/m3
[3]; 318.15 K, m1 = 0.0103
  mass density: 860.78 ± 1 kg/m3
[3]; 318.15 K, m1 = 0.0316
  mass density: 862.7 ± 1 kg/m3
[3]; 318.15 K, m1 = 0.0496
  mass density: 864.3 ± 1 kg/m3
[3]; 318.15 K, m1 = 0.0699
  mass density: 866.08 ± 1 kg/m3
[3]; 318.15 K, m1 = 0.0908
  mass density: 867.89 ± 1 kg/m3
[3]; 318.15 K, m1 = 0.1099
  mass density: 869.54 ± 1 kg/m3
[3]; 318.15 K, m1 = 0.1293
  mass density: 871.17 ± 1 kg/m3
[3]; 318.15 K, m1 = 0.1498
  mass density: 872.89 ± 1 kg/m3
[3]; 318.15 K, m1 = 0.1704
  mass density: 874.58 ± 1 kg/m3

## CC(=O)Nc1ccc(OC(=O)c2ccccc2O)cc1 [salophen] + C1COCCO1
[3]; 288.15 K, m1 = 0.0106
  mass density: 1039.84 ± 1 kg/m3 and 1028.52 ± 1 kg/m3
[3]; 288.15 K, m1 = 0.0284
  mass density: 1029.51 ± 1 kg/m3 and 1040.81 ± 1 kg/m3
[3]; 288.15 K, m1 = 0.0495
  mass density: 1030.66 ± 1 kg/m3 and 1041.93 ± 1 kg/m3
[3]; 288.15 K, m1 = 0.0693
  mass density: 1031.72 ± 1 kg/m3 and 1042.96 ± 1 kg/m3
[3]; 288.15 K, m1 = 0.0855
  mass density: 1032.57 ± 1 kg/m3 and 1043.79 ± 1 kg/m3
[3]; 288.15 K, m1 = 0.1104
  mass density: 1033.86 ± 1 kg/m3 and 1045.04 ± 1 kg/m3
[3]; 288.15 K, m1 = 0.1313
  mass density: 1034.92 ± 1 kg/m3 and 1046.05 ± 1 kg/m3
[3]; 288.15 K, m1 = 0.1482
  mass density: 1035.78 ± 1 kg/m3 and 1046.86 ± 1 kg/m3
[3]; 288.15 K, m1 = 0.1707
  mass density: 1036.89 ± 1 kg/m3 and 1047.91 ± 1 kg/m3
[3]; 308.15 K, m1 = 0.0106
  mass density: 1017.22 ± 1 kg/m3
[3]; 308.15 K, m1 = 0.0284
  mass density: 1018.23 ± 1 kg/m3
[3]; 308.15 K, m1 = 0.0495
  mass density: 1019.39 ± 1 kg/m3
[3]; 308.15 K, m1 = 0.0693
  mass density: 1020.48 ± 1 kg/m3
[3]; 308.15 K, m1 = 0.0855
  mass density: 1021.35 ± 1 kg/m3
[3]; 308.15 K, m1 = 0.1104
  mass density: 1022.68 ± 1 kg/m3
[3]; 308.15 K, m1 = 0.1313
  mass density: 1023.75 ± 1 kg/m3
[3]; 308.15 K, m1 = 0.1482
  mass density: 1024.62 ± 1 kg/m3
[3]; 308.15 K, m1 = 0.1707
  mass density: 1025.75 ± 1 kg/m3
[3]; 318.15 K, m1 = 0.0106
  mass density: 1005.88 ± 1 kg/m3
[3]; 318.15 K, m1 = 0.0284
  mass density: 1006.9 ± 1 kg/m3
[3]; 318.15 K, m1 = 0.0495
  mass density: 1008.09 ± 1 kg/m3
[3]; 318.15 K, m1 = 0.0693
  mass density: 1009.19 ± 1 kg/m3
[3]; 318.15 K, m1 = 0.0855
  mass density: 1010.08 ± 1 kg/m3
[3]; 318.15 K, m1 = 0.1104
  mass density: 1011.41 ± 1 kg/m3
[3]; 318.15 K, m1 = 0.1313
  mass density: 1012.5 ± 1 kg/m3
[3]; 318.15 K, m1 = 0.1482
  mass density: 1013.37 ± 1 kg/m3
[3]; 318.15 K, m1 = 0.1707
  mass density: 1014.52 ± 1 kg/m3

## CC(=O)Nc1ccc(OC(=O)c2ccccc2O)cc1 [salophen] + CC(=O)N(C)C
[3]; 288.15 K, m1 = 0.0106
  mass density: 946.52 ± 1 kg/m3 and 937.32 ± 1 kg/m3
[3]; 288.15 K, m1 = 0.0323
  mass density: 938.87 ± 1 kg/m3 and 948.07 ± 1 kg/m3
[3]; 288.15 K, m1 = 0.0497
  mass density: 940.11 ± 1 kg/m3 and 949.32 ± 1 kg/m3
[3]; 288.15 K, m1 = 0.0704
  mass density: 941.6 ± 1 kg/m3 and 950.78 ± 1 kg/m3
[3]; 288.15 K, m1 = 0.0899
  mass density: 942.99 ± 1 kg/m3 and 952.18 ± 1 kg/m3
[3]; 288.15 K, m1 = 0.1092
  mass density: 944.36 ± 1 kg/m3 and 953.53 ± 1 kg/m3
[3]; 288.15 K, m1 = 0.129
  mass density: 945.78 ± 1 kg/m3 and 954.93 ± 1 kg/m3
[3]; 288.15 K, m1 = 0.1492
  mass density: 947.22 ± 1 kg/m3 and 956.35 ± 1 kg/m3
[3]; 288.15 K, m1 = 0.1742
  mass density: 949.07 ± 1 kg/m3 and 958.13 ± 1 kg/m3
[3]; 308.15 K, m1 = 0.0106
  mass density: 928.08 ± 1 kg/m3
[3]; 308.15 K, m1 = 0.0323
  mass density: 929.62 ± 1 kg/m3
[3]; 308.15 K, m1 = 0.0497
  mass density: 930.86 ± 1 kg/m3
[3]; 308.15 K, m1 = 0.0704
  mass density: 932.36 ± 1 kg/m3
[3]; 308.15 K, m1 = 0.0899
  mass density: 933.77 ± 1 kg/m3
[3]; 308.15 K, m1 = 0.1092
  mass density: 935.17 ± 1 kg/m3
[3]; 308.15 K, m1 = 0.129
  mass density: 936.59 ± 1 kg/m3
[3]; 308.15 K, m1 = 0.1492
  mass density: 938.07 ± 1 kg/m3
[3]; 308.15 K, m1 = 0.1742
  mass density: 939.94 ± 1 kg/m3
[3]; 318.15 K, m1 = 0.0106
  mass density: 918.85 ± 1 kg/m3
[3]; 318.15 K, m1 = 0.0323
  mass density: 920.4 ± 1 kg/m3
[3]; 318.15 K, m1 = 0.0497
  mass density: 921.65 ± 1 kg/m3
[3]; 318.15 K, m1 = 0.0704
  mass density: 923.15 ± 1 kg/m3
[3]; 318.15 K, m1 = 0.0899
  mass density: 924.58 ± 1 kg/m3
[3]; 318.15 K, m1 = 0.1092
  mass density: 925.99 ± 1 kg/m3
[3]; 318.15 K, m1 = 0.129
  mass density: 927.42 ± 1 kg/m3
[3]; 318.15 K, m1 = 0.1492
  mass density: 928.91 ± 1 kg/m3
[3]; 318.15 K, m1 = 0.1742
  mass density: 930.75 ± 1 kg/m3

## CC(=O)Nc1ccc(OC(=O)c2ccccc2O)cc1 [salophen] + C[S+](C)[O-]
[3]; 288.15 K, m1 = 0.0099
  mass density: 1105.64 ± 1 kg/m3 and 1095.61 ± 1 kg/m3
[3]; 288.15 K, m1 = 0.0307
  mass density: 1096.3 ± 1 kg/m3 and 1106.33 ± 1 kg/m3
[3]; 288.15 K, m1 = 0.0493
  mass density: 1096.92 ± 1 kg/m3 and 1106.94 ± 1 kg/m3
[3]; 288.15 K, m1 = 0.07
  mass density: 1097.62 ± 1 kg/m3 and 1107.62 ± 1 kg/m3
[3]; 288.15 K, m1 = 0.0911
  mass density: 1098.35 ± 1 kg/m3 and 1108.33 ± 1 kg/m3
[3]; 288.15 K, m1 = 0.1086
  mass density: 1098.97 ± 1 kg/m3 and 1108.91 ± 1 kg/m3
[3]; 288.15 K, m1 = 0.1311
  mass density: 1099.71 ± 1 kg/m3 and 1109.66 ± 1 kg/m3
[3]; 288.15 K, m1 = 0.1483
  mass density: 1100.31 ± 1 kg/m3 and 1110.22 ± 1 kg/m3
[3]; 288.15 K, m1 = 0.1717
  mass density: 1101.12 ± 1 kg/m3 and 1111 ± 1 kg/m3
[3]; 308.15 K, m1 = 0.0099
  mass density: 1085.58 ± 1 kg/m3
[3]; 308.15 K, m1 = 0.0307
  mass density: 1086.29 ± 1 kg/m3
[3]; 308.15 K, m1 = 0.0493
  mass density: 1086.93 ± 1 kg/m3
[3]; 308.15 K, m1 = 0.07
  mass density: 1087.63 ± 1 kg/m3
[3]; 308.15 K, m1 = 0.0911
  mass density: 1088.38 ± 1 kg/m3
[3]; 308.15 K, m1 = 0.1086
  mass density: 1089 ± 1 kg/m3
[3]; 308.15 K, m1 = 0.1311
  mass density: 1089.77 ± 1 kg/m3
[3]; 308.15 K, m1 = 0.1483
  mass density: 1090.36 ± 1 kg/m3
[3]; 308.15 K, m1 = 0.1717
  mass density: 1091.18 ± 1 kg/m3
[3]; 318.15 K, m1 = 0.0099
  mass density: 1075.56 ± 1 kg/m3
[3]; 318.15 K, m1 = 0.0307
  mass density: 1076.29 ± 1 kg/m3
[3]; 318.15 K, m1 = 0.0493
  mass density: 1076.95 ± 1 kg/m3
[3]; 318.15 K, m1 = 0.07
  mass density: 1077.68 ± 1 kg/m3
[3]; 318.15 K, m1 = 0.0911
  mass density: 1078.44 ± 1 kg/m3
[3]; 318.15 K, m1 = 0.1086
  mass density: 1079.07 ± 1 kg/m3
[3]; 318.15 K, m1 = 0.1311
  mass density: 1079.87 ± 1 kg/m3
[3]; 318.15 K, m1 = 0.1483
  mass density: 1080.47 ± 1 kg/m3
[3]; 318.15 K, m1 = 0.1717
  mass density: 1081.32 ± 1 kg/m3

## C1CCOC1 [tetrahydrofuran]
[1]
  refractive index: 1.4047 ± 0.0004
[2]
  viscosity: 0.448 ± 0.005 mPa·s
  mass density: 882.02 ± 1 kg/m3
